From patent publication US20180256654A1, “USE OF LACTOBACILLUS PARACASEI STRAIN GMNL-653 TO PREPARE COMPOSITION FOR RESISTING BONE LOSS” (GENMONT BIOTECH INC., priority 2017, published 2018)

Test system: ovariectomized ICR female mice
Experiment: Bone tissue analysis by micro computed tomography: trabecular bone volume ratio in the osteoporosis mouse model
Format: in vivo
Conditions: oral gavage for 28 days
Method: Preparation of dead bacteria: 1 μl Lactobacillus paracasei strain GMNL-653 and the Lactobacillus salivarius strain GMNL-678 frozen viral was inoculated to 1 ml of MRS broth, respectively, and aerobically incubated at 37° C. for 20 hours (first activation). The next day, adding 15 μl culture solution (first activation) into 1.5 ml of MRS broth, and then and aerobically incubated at 37° C. for 20 hours (secondary activation) Estimating the bacteria number by using OD 600 nm to adjust the bacteria concentration to 4.1×10^8 CFU/ml, and heat-killed bacteria was carried by autoclaving at 121° C. for 15 minutes. […]
Micro computed tomography (SkyScan 1076, Kontizh, Belgium, with resolution of 18 μm) was taken of the backbone of the right femur far from the end was taken, and the trabecular bone volume ratio (i.e. bone volume/tissue volume; BV/TV) was analyzed by a software. The analyzed position was selected to include the area of 100 pieces under the growth plate excluding cortical bone. […] The obtained data in the experiments were analyzed with two-way analysis of variance, and the T-test statistical analysis. […] After comparisons, the abovementioned groups were analyzed statistically and noted by different marks to represent the statistically significant differences (* represents p<0.05; ** represents p<0.01 See Table 3 and Table 4, showing the results of the experiment 1.

In the case of `NCCCC(O)(P(=O)(O)O)P(=O)(O)O` [Alendronate], the “BV/TV compared with the disease group (OVX+H2O), in words” value is reported as “higher than the disease group”.
